Measured values published in ChEMBL document CHEMBL1156647, “Evolving trends in the dereplication of natural product extracts. 2. The isolation of chrysaibol, an antibiotic peptaibol from a New Zealand sample of the mycoparasitic fungus Sepedonium chrysospermum” (J Nat Prod, 2008).
pIC50: −log10 of the molar value. The source made the active and inactive calls. No cut-off for these calls is given here. Residues, ends and D or L forms follow the SMILES beside them.

Assays:
[1] = test system: P388; test: Cytotoxicity against mouse P388 cells; assay type: functional, cell-based
[2] = test system: Candida albicans; test: Antimicrobial activity against Candida albicans; assay type: functional, organism-based
[3] = test system: Bacillus subtilis; test: Antimicrobial activity against Bacillus subtilis; assay type: functional, organism-based

- pIC50 [3]: 5.81
SMILES: CC(=O)N[C@@H](Cc1c[nH]c2ccccc12)C(=O)NC(C)(C)C(=O)NC(C)(C)C(=O)N[C@@H](CC(C)C)C(=O)N[C@H](C(=O)N[C@@H](CCC(N)=O)C(=O)NC(C)(C)C(=O)NC(C)(C)C(=O)NC(C)(C)C(=O)N[C@@H](CCC(N)=O)C(=O)N[C@@H](CC(C)C)C(=O)NC(C)(C)C(=O)N1CCC[C@H]1C(=O)N[C@@H](CCC(N)=O)C(=O)N[C@@H](C)CO)C(C)C [CHRYSAIBOL] (HELM PEPTIDE1{[ac].W.[Aib].[Aib].L.V.Q.[Aib].[Aib].[Aib].Q.L.[Aib].P.Q.[C[C@@H](CO)N[*:1]]}$$$$V2.0)
- pIC50 [1]: 5.18
- Activity [2]: inactive
